Assay results: patent US9284541B2, “Methods and compositions for protein labeling using lipoic acid ligases” (Massachusetts Institute of Technology, priority 2007, dated 2016)
Entries after “also recorded” stand apart in the source; their conditions may differ.

Columns and labels:
LplA [1] = molecular target: T1, LplA (Escherichia coli, UniProt P32099); test: HPLC analysis of LplA modification of HP1-peptide fusions; kcat of azide 7 ligation to LAP; format: biochemical, E. coli; conditions: C-terminal fusion to HP1 versus peptide 8
E. coli LplA = molecular target: T2, E. coli LplA (Escherichia coli, UniProt P32099); test: Measurement of LplA-probe ligation kinetics (HPLC); format: biochemical
T2 sequence (P32099 2-338 limits assumed): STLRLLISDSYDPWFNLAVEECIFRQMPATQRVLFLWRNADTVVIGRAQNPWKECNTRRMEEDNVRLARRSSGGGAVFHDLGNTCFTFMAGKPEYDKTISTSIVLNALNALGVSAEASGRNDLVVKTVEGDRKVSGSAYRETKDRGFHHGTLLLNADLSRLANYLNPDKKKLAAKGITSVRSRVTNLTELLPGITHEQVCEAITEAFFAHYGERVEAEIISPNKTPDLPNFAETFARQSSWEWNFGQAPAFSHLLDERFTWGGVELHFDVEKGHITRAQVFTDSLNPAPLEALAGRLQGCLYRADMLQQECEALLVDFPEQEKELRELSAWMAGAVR
Procedure: To measure the kcat for LplA ligation of lipoic acid to E2p, 50 nM LplA was combined with 200 μM E2p, 750 μM lipoic acid, […], and 2 mM magnesium acetate in 25 mM sodium phosphate pH 7.0. The reaction was initiated with addition of 1 mM ATP to the pre-warmed (30° C.) mixture. The reaction was incubated at 30° C., and 90 μL aliquots were removed every 5 minutes and quenched with 50 mM EDTA (final concentration). Samples were analyzed by C18 reverse-phase HPLC as described in the “Methods” section. Measurements were performed in triplicate. A calibration curve was obtained that correlated the ratio of integrated HPLC peak areas (E2p:E2p-probe) to the actual protein ratio, in order to compensate for differences in the extinction coefficients of E2p and lipoylated E2p. The amount of product obtained at each time point was plotted against time, to obtain the Vmax of the reaction. From this, the kcat value was obtained using the equation Vmax=kcat [E]total.
90 μL aliquots were removed from the 30° C. reactions at 5 minutes intervals, up to 30 minutes, and quenched with 50 mM EDTA (final concentration). Samples were analyzed by HPLC as above. The amount of product obtained at each time point was plotted against time, to obtain the initial velocity for each concentration of azide 7. […] From the Vmax value, kcat was calculated using the equation Vmax=kcat [E]total.

LplA [2] = molecular target: T1, LplA; test: In vitro LplA activity assay: probe ligation onto E2p (HPLC); format: biochemical, E. coli; conditions: 350 μM probe, 200 μM E2p, 30 minutes
Procedure: LplA reactions contained 2 μM LplA, 200 μM E2p, 350 μM probe, 1 mM ATP, 2 mM magnesium acetate, and 25 mM sodium phosphate pH 7.0. Reactions were incubated at 30° C. for 30 minutes, and then quenched with EDTA (final concentration 50 mM). Conversion to product was determined by HPLC on a C18 reverse-phase column with a 40-57% gradient of acetonitrile in water with 0.1% trifluoroacetic acid over 20 minutes (flow rate 1.0 mL/minute). […] Percent conversion to product was calculated from the ratio of the E2p-probe peak area to the sum of (E2p+E2p-probe) peak areas. All measurements were performed in triplicate.

[3] = system: mitochondrial respiration; test: Effect of azide 7 on mitochondrial respiration; format: cell-based; conditions: 24-hour exposure, concentrations less than 750 μM

## peptide 9: peptide 8 fused to the C-terminal end of HP1 (SEQ ID NO: 9) (DEVLVEIETDKAVLEVP)
LplA [1]
  drop of lipoylation rate: 5 fold

## O=C(O)CCCC[C@@H]1CCSS1 (racemic) [lipoic acid]
E. coli LplA; 30° C., pH 7.0
  kcat of LplA-catalyzed ligation to E2p: 0.253 ± 0.003 s⁻¹

## [N-]=[N+]=NCCCCCCCC(=O)O [azide 7, 8-azidooctanoic acid]
LplA [2]
  incorporation / ligation kinetics by LplA: fastest kinetics; also recorded: best kinetics
E. coli LplA; ligation to E2p
  Kcat relative to the measured Kcat for lipoic acid ligation: 2.3 fold
[3]
  effect on mitochondrial respiration: no effect
